Test results taken from the NIST ThermoML archive (doi:10.1021/je050020m).
Numbers after ± are expanded uncertainties.

Conditions: Liquid, Vibrating tube method

CCCCCCCCCC [decane]
Conditions	mass density [kg/m3]
313.09 K, 1048 kPa	715.63 ± 0.56
313.09 K, 2010 kPa	716.43 ± 0.56
313.09 K, 2997 kPa	717.28 ± 0.56
313.09 K, 4060 kPa	718.18 ± 0.57
313.09 K, 5029 kPa	718.98 ± 0.57
313.09 K, 6019 kPa	719.8 ± 0.57
313.09 K, 7016 kPa	720.64 ± 0.58
313.09 K, 8050 kPa	721.47 ± 0.58
313.09 K, 9000 kPa	722.24 ± 0.58
313.09 K, 10029 kPa	723.06 ± 0.59
313.09 K, 11016 kPa	723.85 ± 0.59
313.09 K, 12012 kPa	724.63 ± 0.6
313.09 K, 13027 kPa	725.4 ± 0.6
313.09 K, 14011 kPa	726.15 ± 0.6
313.09 K, 15010 kPa	726.91 ± 0.61
313.09 K, 16030 kPa	727.65 ± 0.61
313.09 K, 17016 kPa	728.38 ± 0.62
313.09 K, 18037 kPa	729.1 ± 0.62
313.09 K, 19000 kPa	729.81 ± 0.63
313.09 K, 20019 kPa	730.5 ± 0.63
313.09 K, 21014 kPa	731.21 ± 0.63
313.09 K, 22032 kPa	731.92 ± 0.64
313.09 K, 23021 kPa	732.62 ± 0.64
313.09 K, 24016 kPa	733.33 ± 0.65
313.09 K, 25012 kPa	734.06 ± 0.65
323.03 K, 1025 kPa	707.94 ± 0.56
323.03 K, 2017 kPa	708.85 ± 0.56
323.03 K, 3015 kPa	709.76 ± 0.56
323.03 K, 4018 kPa	710.65 ± 0.57
323.03 K, 5022 kPa	711.53 ± 0.57
323.03 K, 6021 kPa	712.41 ± 0.57
323.03 K, 7018 kPa	713.31 ± 0.58
323.03 K, 8022 kPa	714.15 ± 0.58
323.03 K, 9016 kPa	715.01 ± 0.58
323.03 K, 10012 kPa	715.84 ± 0.59
323.03 K, 11022 kPa	716.67 ± 0.59
323.03 K, 12015 kPa	717.51 ± 0.6
323.03 K, 13020 kPa	718.33 ± 0.6
323.03 K, 14011 kPa	719.12 ± 0.6
323.03 K, 15010 kPa	719.9 ± 0.61
323.03 K, 16019 kPa	720.71 ± 0.61
323.03 K, 17010 kPa	721.46 ± 0.62
323.03 K, 18013 kPa	722.22 ± 0.62
323.03 K, 19033 kPa	723 ± 0.63
323.03 K, 20022 kPa	723.74 ± 0.63
323.03 K, 21014 kPa	724.45 ± 0.64
323.03 K, 22023 kPa	725.22 ± 0.64
323.03 K, 23025 kPa	725.93 ± 0.65
323.03 K, 24016 kPa	726.68 ± 0.65
323.03 K, 25021 kPa	727.42 ± 0.66
332.95 K, 1022 kPa	700.4 ± 0.56
332.95 K, 2005 kPa	701.33 ± 0.56
332.95 K, 3025 kPa	702.32 ± 0.56
332.95 K, 4025 kPa	703.25 ± 0.56
332.95 K, 5018 kPa	704.2 ± 0.57
332.95 K, 6018 kPa	705.12 ± 0.57
332.95 K, 7019 kPa	706.08 ± 0.58
332.95 K, 8023 kPa	706.96 ± 0.58
332.95 K, 9021 kPa	707.89 ± 0.58
332.95 K, 10017 kPa	708.78 ± 0.59
332.95 K, 11033 kPa	709.68 ± 0.59
332.95 K, 12023 kPa	710.54 ± 0.6
332.95 K, 13009 kPa	711.42 ± 0.6
332.95 K, 14016 kPa	712.21 ± 0.6
332.95 K, 15025 kPa	713.05 ± 0.61
332.95 K, 16011 kPa	713.87 ± 0.61
332.95 K, 17017 kPa	714.69 ± 0.62
332.95 K, 18016 kPa	715.5 ± 0.62
332.95 K, 19015 kPa	716.28 ± 0.63
332.95 K, 20029 kPa	717.09 ± 0.63
332.95 K, 21001 kPa	717.84 ± 0.64
332.95 K, 22034 kPa	718.63 ± 0.64
332.95 K, 23017 kPa	719.41 ± 0.65
332.95 K, 24023 kPa	720.18 ± 0.65
332.95 K, 25002 kPa	720.95 ± 0.66
343.8 K, 1014 kPa	692.56 ± 0.55
343.8 K, 2027 kPa	693.64 ± 0.56
343.8 K, 3016 kPa	694.64 ± 0.56
343.8 K, 4020 kPa	695.65 ± 0.56
343.8 K, 5016 kPa	696.67 ± 0.57
343.8 K, 6019 kPa	697.68 ± 0.57
343.8 K, 7026 kPa	698.66 ± 0.58
343.8 K, 8022 kPa	699.65 ± 0.58
343.8 K, 9014 kPa	700.58 ± 0.58
343.8 K, 10017 kPa	701.53 ± 0.59
343.8 K, 11022 kPa	702.48 ± 0.59
343.8 K, 12021 kPa	703.39 ± 0.6
343.8 K, 13011 kPa	704.27 ± 0.6
343.8 K, 14013 kPa	705.16 ± 0.61
343.8 K, 15025 kPa	706.05 ± 0.61
343.8 K, 16019 kPa	706.94 ± 0.61
343.8 K, 17010 kPa	707.79 ± 0.62
343.8 K, 18023 kPa	708.61 ± 0.62
343.8 K, 19030 kPa	709.47 ± 0.63
343.8 K, 20008 kPa	710.25 ± 0.64
343.8 K, 21017 kPa	711.1 ± 0.64
343.8 K, 22035 kPa	711.92 ± 0.65
343.8 K, 23004 kPa	712.73 ± 0.65
343.8 K, 24008 kPa	713.53 ± 0.66
343.8 K, 25103 kPa	714.44 ± 0.66
352.71 K, 2132 kPa	686.04 ± 0.56
352.71 K, 3053 kPa	687.07 ± 0.56
352.71 K, 4028 kPa	688.15 ± 0.56
352.71 K, 5028 kPa	689.19 ± 0.57
352.71 K, 6065 kPa	690.28 ± 0.57
352.71 K, 7007 kPa	691.26 ± 0.57
352.71 K, 8041 kPa	692.36 ± 0.58
352.71 K, 9064 kPa	693.4 ± 0.58
352.71 K, 10047 kPa	694.38 ± 0.59
352.71 K, 11019 kPa	695.38 ± 0.59
352.71 K, 12012 kPa	696.31 ± 0.6
352.71 K, 13031 kPa	697.31 ± 0.6
352.71 K, 14010 kPa	698.18 ± 0.61
352.71 K, 15014 kPa	699.14 ± 0.61
352.71 K, 16012 kPa	700.05 ± 0.62
352.71 K, 17008 kPa	700.95 ± 0.62
352.71 K, 17959 kPa	701.8 ± 0.63
352.71 K, 19020 kPa	702.7 ± 0.63
352.71 K, 20044 kPa	703.6 ± 0.64
352.71 K, 21044 kPa	704.46 ± 0.64
352.71 K, 22024 kPa	705.31 ± 0.65
352.71 K, 23009 kPa	706.13 ± 0.65
352.71 K, 24014 kPa	707 ± 0.66
352.71 K, 25000 kPa	707.86 ± 0.66
362.63 K, 2054 kPa	678.23 ± 0.55
362.63 K, 3010 kPa	679.34 ± 0.56
362.63 K, 4132 kPa	680.68 ± 0.56
362.63 K, 5020 kPa	681.68 ± 0.57
362.63 K, 6026 kPa	682.79 ± 0.57
362.63 K, 7042 kPa	683.95 ± 0.57
362.63 K, 8057 kPa	685.06 ± 0.58
362.63 K, 9014 kPa	686.08 ± 0.58
362.63 K, 10034 kPa	687.17 ± 0.59
362.63 K, 10999 kPa	688.24 ± 0.59
362.63 K, 12014 kPa	689.26 ± 0.6
362.63 K, 13025 kPa	690.26 ± 0.6
362.63 K, 13992 kPa	691.22 ± 0.61
362.63 K, 15019 kPa	692.24 ± 0.61
362.63 K, 16004 kPa	693.18 ± 0.62
362.63 K, 17008 kPa	694.11 ± 0.62
362.63 K, 18002 kPa	695.04 ± 0.63
362.63 K, 19037 kPa	696.02 ± 0.63
362.63 K, 20027 kPa	696.93 ± 0.64
362.63 K, 21030 kPa	697.8 ± 0.64
362.63 K, 22003 kPa	698.73 ± 0.65
362.63 K, 23027 kPa	699.61 ± 0.66
362.63 K, 24046 kPa	700.55 ± 0.66
362.63 K, 25011 kPa	701.39 ± 0.67
